Assay results from ChEMBL document CHEMBL1138977, “Design and synthesis of novel 5,6-disubstituted uracil derivatives as potent inhibitors of thymidine phosphorylase” (Bioorg Med Chem Lett, 2006).

The compounds below were run against Thymidine phosphorylase (Escherichia coli K-12, UniProt P07650) (assay: Inhibition of Escherichia coli TP).
Sequence of Thymidine phosphorylase (P07650 whole entry): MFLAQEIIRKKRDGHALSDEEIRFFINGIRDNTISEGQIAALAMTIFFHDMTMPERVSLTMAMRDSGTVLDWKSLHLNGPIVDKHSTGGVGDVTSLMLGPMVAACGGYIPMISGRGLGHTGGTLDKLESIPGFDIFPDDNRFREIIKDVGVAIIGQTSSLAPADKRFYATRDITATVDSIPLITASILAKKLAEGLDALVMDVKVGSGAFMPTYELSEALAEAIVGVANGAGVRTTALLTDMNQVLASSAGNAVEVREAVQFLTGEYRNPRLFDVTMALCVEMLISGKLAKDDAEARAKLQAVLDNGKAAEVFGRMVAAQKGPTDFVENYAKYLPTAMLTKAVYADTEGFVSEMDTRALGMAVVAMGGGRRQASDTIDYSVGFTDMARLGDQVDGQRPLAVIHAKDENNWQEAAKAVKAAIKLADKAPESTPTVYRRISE
Work on `Oc1nc(O)c(Br)c(N2CCC2)n1` yielded an IC50 of 2 µM.
For `OCCC1CCN(c2nc(O)nc(O)c2Br)CC1`, the IC50 was 6.1 µM.
`Oc1nc(O)c(Br)c(NCCNc2nc(O)nc(O)c2Br)n1` gave an IC50 of 2.5 µM.
Work on `Oc1nc(O)c(Cl)c(N2CCCCC2)n1` yielded an IC50 of 7.3 µM.
In the case of `Oc1nc(O)c(Cl)c(N2CCC2)n1`, the IC50 is reported as 14 µM.
`Oc1nc(O)c(Cl)c(N2CCOCC2)n1` was tested, and the IC50 was 10.4 µM.
In the case of `OCC1CCN(c2nc(O)nc(O)c2Br)CC1`, the IC50 is reported as 5.5 µM.
`OCC1CCCN(c2nc(O)nc(O)c2Br)C1` (stereo unspecified) showed an IC50 of 6.5 µM.
In the case of `OCC1CCCCN1c1nc(O)nc(O)c1Br` (stereo unspecified), the IC50 is reported as 6.5 µM.
Compound `OCC1CCCN(c2nc(O)nc(O)c2Cl)C1` (stereo unspecified) has an IC50 of 5.4 µM.
For `Oc1nc(O)c(Br)c(N2CCOCC2)n1`, the IC50 was 11.6 µM.
Work on `Oc1nc(O)c(Br)c(NC2CC2)n1` yielded an IC50 of 3.5 µM.
Work on `Oc1nc(O)c(Cl)c(NC2CC2)n1` yielded an IC50 of 10.1 µM.
`OCC1CCCCN1c1nc(O)nc(O)c1Cl` (stereo unspecified) gave an IC50 of 4.3 µM.
For `Oc1nc(O)c(Cl)c(N2CCN(c3nc(O)nc(O)c3Cl)CC2)n1`, the IC50 was 8.7 µM.
Compound `Nc1[nH]c(=O)[nH]c(=O)c1Cl` has an IC50 of 4 µM.
In the case of `Oc1nc(O)c(Br)c(N2CCCCC2)n1`, the IC50 is reported as 9.1 µM.
Compound `Oc1nc(O)c(Br)c(N2CCN(c3nc(O)nc(O)c3Br)CC2)n1` has an IC50 of 2.3 µM.
`Oc1nc(O)c(Cl)c(N2CCCC2)n1` showed an IC50 of 4.4 µM.
In the case of `NNc1nc(O)nc(O)c1Cl`, the IC50 is reported as 9.1 µM.
With `OCCC1CCN(c2nc(O)nc(O)c2Cl)CC1` the IC50 was 5.5 µM.
